Assay results: US8715529B1, “Synthesis and applications of triazaborolopyridinium compounds and substituted triazaborolopyridinium compounds and methods of use” (Arrowhead Center, Inc., priority 2012, dated 2014)

Columns and labels:
[1] = target: T1, human kinesin Eg5 motor protein (Homo sapiens, UniProt P52732); assay: Monopolar spindle formation in HeLa cells treated with MSTLC probes (fixed, tubulin/DNA staining); assay type: cell-based; conditions: read-out: EC50, monopolar spindles / block of bipolar spindle
T1 construct: endogenous in cells; host or cells: HeLa cells
T1 sequence (P52732 1-1056): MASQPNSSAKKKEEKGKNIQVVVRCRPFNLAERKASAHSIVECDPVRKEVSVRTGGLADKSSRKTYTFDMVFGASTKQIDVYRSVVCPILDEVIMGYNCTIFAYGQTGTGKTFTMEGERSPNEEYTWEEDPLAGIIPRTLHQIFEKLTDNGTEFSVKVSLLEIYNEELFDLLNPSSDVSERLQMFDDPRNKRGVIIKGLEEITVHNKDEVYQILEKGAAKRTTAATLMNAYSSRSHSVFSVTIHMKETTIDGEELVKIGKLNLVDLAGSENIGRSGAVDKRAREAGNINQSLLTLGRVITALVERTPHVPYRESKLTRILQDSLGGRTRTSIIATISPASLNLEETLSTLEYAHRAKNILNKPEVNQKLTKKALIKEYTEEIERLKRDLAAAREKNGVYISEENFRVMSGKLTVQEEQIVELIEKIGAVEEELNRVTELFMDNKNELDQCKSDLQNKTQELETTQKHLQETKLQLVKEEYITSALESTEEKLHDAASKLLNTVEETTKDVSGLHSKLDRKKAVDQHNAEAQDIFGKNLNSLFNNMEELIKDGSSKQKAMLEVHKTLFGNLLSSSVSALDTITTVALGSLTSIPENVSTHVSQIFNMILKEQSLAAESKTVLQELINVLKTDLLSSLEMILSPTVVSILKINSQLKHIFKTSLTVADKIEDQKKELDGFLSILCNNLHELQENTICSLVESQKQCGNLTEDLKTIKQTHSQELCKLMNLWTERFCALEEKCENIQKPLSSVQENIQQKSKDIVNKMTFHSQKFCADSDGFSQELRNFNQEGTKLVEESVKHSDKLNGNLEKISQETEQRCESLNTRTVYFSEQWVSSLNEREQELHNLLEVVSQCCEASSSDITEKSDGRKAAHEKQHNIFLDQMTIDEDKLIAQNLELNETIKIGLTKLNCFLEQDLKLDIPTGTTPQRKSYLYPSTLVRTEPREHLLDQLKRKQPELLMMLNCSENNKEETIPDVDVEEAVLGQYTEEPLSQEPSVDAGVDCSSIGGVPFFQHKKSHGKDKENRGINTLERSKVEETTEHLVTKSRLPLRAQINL
Procedure: The inhibitory activity of human kinesin Eg5 motor protein was tested using probes 3.3, 3.5 and 413. HeLa cells were treated with 10 μM of each probe, as well as the unconjugated inhibitor Methoxy-S-Trityl-L-cysteine. Then cells were incubated with anti-α tubulin 1:1000 primary antibody, AlexaFluor-546 conjugated rabbit anti-mouse secondary antibody and Hoechst 33342 for staining microtubules and DNA respectively. Cells were subsequently washed and mounted onto glass sides with 90% glycerol and imaged using a Zeiss Axiovert 200M inverted microscope outfitted with epifluorescence optics, and a Zeiss Apotome structured illumination module.

HeLa cells = assay: Live imaging of HeLa cells treated with MSTLC probes; assay type: cell-based; conditions: mitotic HeLa cells
phospho-ERK = assay: Immunoblot of phospho-ERK accumulation in MCF7 cells; assay type: cell-based; conditions: 10 nM, about 15 minutes
Procedure: FIG. 9 illustrates that E2-HPY(530) treatment leads to the accumulation of phospho-ERK in MCF7 breast cancer cells. […] After about a 15 minute treatment, protein lysates were isolated for immunoblot analysis. The upper panel of […] was probed with pERK1/2 mAb (1:600, Santa Cruz Biotechnology) overnight at about 4° C. Lower panel was obtained after stripping the membrane and probing (1:3000) with Actin mAb overnight at about 4° C. Primary antibodies were visualized with horseradish peroxidase conjugated secondary antibodies.
FIG. 9 illustrates that E2-HPY(530) treatment leads to the accumulation of phospho-ERK in MCF7 breast cancer cells. […] Primary antibody raised against P-ERK was used to visualize p-ERK levels. Actin expression determined by Actin specific mAb was used as a loading control.

[2] = test system: estrogen receptor (ER)-dependent promoter; assay: Invitrogen SelectScreen Profiling Service, ER-mediated transcription; assay type: cell-based; conditions: read-out: ED50, ER-mediated transcription
[3] = Octanol/water partition coefficient (Log Po/w); assay type: physicochemical

SMILES: COc1ccc(C(SC[C@H](N)C(=O)NCCC#CC2=CN3C(=N[N+](=C(C)C)[B-]3(F)F)C=C2)(c2ccccc2)c2ccccc2)cc1 [3.3]
- EC50 [1]: ~1130 nM
- spindle phenotype (HeLa cells): formed monopolar spindles

SMILES: COc1ccc(C(SC[C@H](N)C(=O)NCCC#CC2=CN3C(=N[N+](=C(C)C)[B-]3(OC)OC)C=C2)(c2ccccc2)c2ccccc2)cc1 [3.5]
- EC50 [1]: ~1030 nM
- spindle phenotype (HeLa cells): formed monopolar spindles

SMILES: C[C@]12CC[C@@H]3c4ccc(O)cc4CC[C@H]3[C@@H]1CC[C@@H]2O [E2, 17-β-estradiol]
- accumulation of phospho-ERK (phospho-ERK): resulted in the accumulation of phospho-ERK
- EC50 [2]: 0.11 nM

SMILES: F[B-]1(F)N2C=C(I)C=CC2=N[N+]1=C1c2ccccc2-c2ccccc21 [HPY(530)-Iodide, 2-(9H-fluoren-9-ylidene)-3,3-difluoro-6-iodo-2,3-dihydro-[1,2,4,3]triazaborolo[4,5-a]pyridin-2-ium-3-uide]
- logP [3]: 0.79
